These results are taken from patent publication US12098145B2 (Libra Therapeutics, Inc., priority 2022, dated 2024).

Where a name gives a salt, the structure may show the parent alone. Read-outs that look alike come from different tables or passages of the source.

Assay [1] addresses T1, TRPML1 (Homo sapiens, UniProt Q9GZU1).
T1 construct: expressed in transfected cells; host or cells: HEK T-REx cells stably expressing GCaMP6f and TRPML1
Kind of assay: Cellular TRPML1 assay (FLIPR, GCaMP6f calcium read-out). The assay is classed as cell-based. The gist of the method: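 Read-out is GCaMP6f fluorescence over 300 s after compound addition in Ca2+-free Tyrode's buffer, final DMSO 0.5%, on FLIPR Tetra. Cells are HEK T-REx stably co-expressing the indicator and TRPML1, plated 24 h earlier in Optimem + 0.5% FBS and pre-incubated ~10 min at room temperature.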

The test system of assay [2] is TFEB. Kind of assay: TFEB translocation assay (TFEB reporter in U2OS cells, imaging). The assay is classed as cell-based. Conditions: Homo sapiens; U2OS cell line with TFEB reporter, 2 hours incubation, nucleus to cytoplasm ratio, normalized to Torin-1; read-out: TFEB Translocation pEC50 (converted). The protocol: Example B: TFEB Translocation Assay
Reporter TFEB: the reporter is fused to a sequence of monomeric red fluorescent protein.
The reporter TFEB have been stably expressed in U2OS cell line and used as read-out.
Experiments were performed in 384 MTP well format. Cells were seeded in 384-w at a density of 4000 cells/well in 20 μl/well complete growth medium without antibiotics. Twenty-four hours later, cells were treated with compounds and incubated for further 2 hours. Then the cells were imaged and assayed for the response to various compounds using the reporter for TFEB expressed in the cells as readout.
The experiments were performed in a 384-well format according to the following procedure: • 24 h after seeding, cell culture medium was carefully removed and replaced with 20 μl of Opti-MEM (30′ incubation at 37° C. before compound addition) • Then, cells were incubated with compounds diluted in Opti-MEM+0.015% Tween 80 at the desired concentration, with the reference molecule (agonist) Torin-1 at a top concentration of 1 μM (max signal), and with the other reference molecule (agonist) MLSA-5 at top concentration of 20 μM for 2 hours at 37° C. and 5% CO2. The final percentage of DMSO was 0.5% in all the conditions. • Staining of the nuclei was obtained by incubating the cells with 24 μM/well of Hoechst 3342 in standard Tyrode's buffer for 15 min at RT • Then the cells were fixed with PFA 4% for 30 min at RT • After three washes with standard Tyrode's buffer, samples were acquired by recording two fluorescence emission channels (DS-red and blue) at 20× magnification and with at least 3 fields of view per well in an Operetta CLS microscope (PerkinElmer). • Image analysis was performed by using Harmony software (PerkinElmer). The image analysis involved the following steps: flat-field illumination correction, nuclei segmentation, cytoplasm segmentation and calculation of intensity fluorescence in the cytosol and nuclei compartments. Measurements of signal intensity ratio (nucleus to cytoplasm) was used to obtain information on the effects of compounds on the TFEB translocation. • Data from image analysis measurements were finally loaded and analyzed for normalization and fitting procedures in Genedata Screener© software. Data Analysis
Feature: Mean translocation ratio (mean/well)
Data normalization: Stimulator—Neutral control
The GeneData Screener method we have used, normalizes the median of the Stimulator control wells (Torin-1) to 100% and the median of the Neutral control wells (DMSO) to 0% Activity[%]=100*(x−<Min>)/(<“Max”>−<Min>)

Setting [3] is: HEKT-REx/GCaMP6f/TRPML1 cells, FLIPR TETRA, kinetic response over 300 seconds, read-out: TRPML1 FLIPR pEC50 (converted).

T1 sequence (Q9GZU1 whole entry): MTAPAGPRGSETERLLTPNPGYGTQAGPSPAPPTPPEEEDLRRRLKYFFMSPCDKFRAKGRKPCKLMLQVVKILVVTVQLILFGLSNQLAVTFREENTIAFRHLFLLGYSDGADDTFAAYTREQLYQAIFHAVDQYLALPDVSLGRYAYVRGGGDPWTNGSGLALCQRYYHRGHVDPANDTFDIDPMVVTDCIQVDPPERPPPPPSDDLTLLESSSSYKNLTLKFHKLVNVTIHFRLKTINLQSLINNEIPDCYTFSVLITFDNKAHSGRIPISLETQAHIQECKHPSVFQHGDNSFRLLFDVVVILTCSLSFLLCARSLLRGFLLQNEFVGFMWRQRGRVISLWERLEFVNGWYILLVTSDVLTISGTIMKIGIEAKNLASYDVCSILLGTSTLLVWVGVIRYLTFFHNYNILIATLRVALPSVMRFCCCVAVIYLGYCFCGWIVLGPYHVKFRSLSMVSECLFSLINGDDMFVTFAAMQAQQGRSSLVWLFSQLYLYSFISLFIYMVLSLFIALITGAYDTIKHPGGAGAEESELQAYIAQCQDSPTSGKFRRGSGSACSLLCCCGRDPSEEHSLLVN

As for `O=C(Nc1ccc(O[C@@H]2C[C@@H]3C[C@@H]3C2)c(F)c1)c1nc(N2CC3CCC3C2)oc1CC(F)(F)F` (stereo partly drawn) [Example 161, N-(4-(cis-bicyclo[3.1.0]hexan-3-yloxy)-3-fluorophenyl)-2-(3-azabicyclo[3.2.0]heptan-3-yl)-5-(2,2,2-trifluoroethyl)oxazole-4-carboxamide], the EC50 in assay [1] (setting [3]) and in assay [2] was 10 to 1000 nM each time.
Take `O=C(Nc1cc(F)c(O[C@@H]2C[C@@H]3C[C@@H]3C2)c(F)c1)c1nc(N2CCC3OCCC32)oc1CC(F)(F)F` (stereo partly drawn) [Example 157, N-(4-(cis-bicyclo[3.1.0]hexan-3-yloxy)-3,5-difluorophenyl)-2-(hexahydro-4H-furo[3,2-b]pyrrol-4-yl)-5-(2,2,2-trifluoroethyl)oxazole-4-carboxamide]: the EC50 in assay [1] (setting [3]) and in assay [2] was 10 to 1000 nM throughout.
Turning to `CCC1(CC)CN(c2nc(C(=O)Nc3cc(C)c(N4C5CCCC4CC5)c(F)c3)c(CCF)o2)C1` [Example 289, N-(4-(8-azabicyclo[3.2.1]octan-8-yl)-3-fluoro-5-methylphenyl)-2-(3,3-diethylazetidin-1-yl)-5-(2-fluoroethyl)oxazole-4-carboxamide], the EC50 in assay [1] and in assay [2] was 10 to 1000 nM throughout.
As for `O=C(Nc1ccc(N2CCCCC2)c(O)c1)c1nc(N2CCCC2)oc1CC(F)(F)F` [Example 84, N-(3-hydroxy-4-(piperidin-1-yl)phenyl)-2-(pyrrolidin-1-yl)-5-(2,2,2-trifluoroethyl)oxazole-4-carboxamide], the EC50 in assay [1] (setting [3]) was 1000 to 10000 nM; in assay [2] it was 10000 to 100000 nM.
For `CCN(C)Cc1oc(N2CC(C)(OC)C2)nc1C(=O)Nc1cc(F)c(OC2CC3CC(C3)C2)c(F)c1` (stereo not shown) [Example 307, N-(4-(bicyclo[3.1.1]heptan-3-yloxy)-3,5-difluorophenyl)-5-((ethyl(methyl)amino)methyl)-2-(3-methoxy-3-methylazetidin-1-yl)oxazole-4-carboxamide hydrochloride], the EC50 in assay [1] (setting [3]) and in assay [2] was 10 to 1000 nM in each case.
In the case of `Cc1cc(NC(=O)c2nc(N3CC(C)(CO)C3)oc2CC(F)(F)F)cc(F)c1O[C@@H]1C[C@@H]2C[C@@H]2C1` [Example 128], the EC50 in assay [1] (setting [3]) and in assay [2] was 10 to 1000 nM each time.
For `O=C(Nc1ccc(OC2CCCC2(F)F)c(F)c1)c1nc(N2CCC(CO)C2)oc1CC(F)(F)F` (stereo not shown) [Example 3, N-(4-((2,2-difluorocyclopentyl)oxy)-3-fluorophenyl)-2-(3-(hydroxymethyl)pyrrolidin-1-yl)-5-(2,2,2-trifluoroethyl)oxazole-4-carboxamide], the EC50 in assay [1] (setting [3]) and in assay [2] was 1000 to 10000 nM throughout.
On to `O=C(Nc1cc(F)c(OC2CC3C[C@H]3C2)c(F)c1)c1nc(N2CCC3(CC3)C2)oc1CC(F)(F)F` (stereo partly shown) [Example 38], for which the EC50 in assay [1] (setting [3]) and in assay [2] was 10 to 1000 nM each time.
On to `O=C(Nc1ccc(O[C@@H]2C[C@@H]3C[C@@H]3C2)c(F)c1)c1nc(N2CCC3(COC3)C2)oc1CC(F)(F)F` [Example 73, N-(4-{cis-bicyclo[3.1.0]hexan-3-yloxy}-3-fluorophenyl)-2-{2-oxa-6-azaspiro[3.4]octan-6-yl}-5-(2,2,2-trifluoroethyl)oxazole-4-carboxamide], for which the EC50 in assay [1] (setting [3]) and in assay [2] was 10 to 1000 nM in each case.
With `COC1(C)CN(c2nc(C(=O)Nc3cc(C)c(N4C5CCCC4CC5)c(F)c3)c(CCF)o2)C1` [Example 290], the EC50 in assay [1] and in assay [2] was 10 to 1000 nM throughout.
Regarding `O=C(Nc1cc(F)c(O[C@@H]2C[C@@H]3C[C@@H]3C2)c(F)c1)c1nc(N2CCC23CCC3)oc1CC(F)(F)F` [Example 170, N-(4-(cis-bicyclo[3.1.0]hexan-3-yloxy)-3,5-difluorophenyl)-2-(1-azaspiro[3.3]heptan-1-yl)-5-(2,2,2-trifluoroethyl)oxazole-4-carboxamide], the EC50 in assay [1] (setting [3]) and in assay [2] was 10 to 1000 nM throughout.
As for `COC1(C)CN(c2nc(C(=O)Nc3cc(F)c(O[C@@H]4C[C@@H]5C[C@@H]5C4)c(F)c3)c(CC(F)(F)F)o2)C1` [Example 178, N-(4-(cis-bicyclo[3.1.0]hexan-3-yloxy)-3,5-difluorophenyl)-2-(3-methoxy-3-methylazetidin-1-yl)-5-(2,2,2-trifluoroethyl)oxazole-4-carboxamide], the EC50 in assay [1] (setting [3]) and in assay [2] was 10 to 1000 nM in each case.
As to `Cc1oc(N2CCCC2)nc1C(=O)Nc1ccc(N2CCCCC2)c(F)c1` [Example 112, N-(3-fluoro-4-(piperidin-1-yl)phenyl)-5-methyl-2-(pyrrolidin-1-yl)oxazole-4-carboxamide], the EC50 in assay [1] (setting [3]) and in assay [2] was 1000 to 10000 nM in each case.
For `O=C(Nc1ccc(N2CCCCC2)c(F)c1)c1nc(N2CCC3(COC3)C2)oc1CC(F)(F)F` [Example 33, N-(3-fluoro-4-(piperidin-1-yl)phenyl)-2-(2-oxa-6-azaspiro[3.4]octan-6-yl)-5-(2,2,2-trifluoroethyl)oxazole-4-carboxamide], the EC50 was 10 to 1000 nM in assay [1] (setting [3]) and 1000 to 10000 nM in assay [2].
Regarding `CCc1oc(N2CCCC2)nc1C(=O)Nc1cc(C)c(OC2CC3CC(C3)C2)c(F)c1` (stereo not shown) [Example 225, N-(4-(bicyclo[3.1.1]heptan-3-yloxy)-3-fluoro-5-methylphenyl)-5-ethyl-2-(pyrrolidin-1-yl)oxazole-4-carboxamide], the EC50 in assay [1] (setting [3]) and in assay [2] was 10 to 1000 nM in each case.
On to `CCC1(OC)CN(c2nc(C(=O)Nc3cc(F)c(O[C@@H]4C[C@@H]5C[C@@H]5C4)c(F)c3)c(CN(C)C)o2)C1` [Example 303, N-(4-(cis-bicyclo[3.1.0]hexan-3-yloxy)-3,5-difluorophenyl)-5-((dimethylamino)methyl)-2-(3-ethyl-3-methoxyazetidin-1-yl)oxazole-4-carboxamide], for which the EC50 in assay [1] (setting [3]) and in assay [2] was 10 to 1000 nM each time.
As to `CCC1(CC)CN(c2nc(C(=O)Nc3cc(F)c(OC4CC5CC(C5)C4)c(F)c3)c(CC(F)(F)F)o2)C1` (stereo not shown) [Example 145, N-(4-(bicyclo[3.1.1]heptan-3-yloxy)-3,5-difluorophenyl)-2-(3,3-diethylazetidin-1-yl)-5-(2,2,2-trifluoroethyl)oxazole-4-carboxamide], the EC50 in assay [1] (setting [3]) and in assay [2] was 10 to 1000 nM throughout.
On to `Cc1cc(NC(=O)c2nc(N3CC(C)(CO)C3)oc2CC(F)(F)F)cc(F)c1OC1CC2CC(C2)C1` (stereo not shown) [Example 129, N-(4-(bicyclo[3.1.1]heptan-3-yloxy)-3-fluoro-5-methylphenyl)-2-(3-(hydroxymethyl)-3-methylazetidin-1-yl)-5-(2,2,2-trifluoroethyl)oxazole-4-carboxamide], for which the EC50 in assay [1] (setting [3]) and in assay [2] was 10 to 1000 nM each time.
For `Cc1cc(NC(=O)c2nc(N3CCCC3)oc2CC(F)(F)F)cc(F)c1NC1CC2CC(C2)C1` (stereo not shown) [Example 193, N-(4-(bicyclo[3.1.1]heptan-3-ylamino)-3-fluoro-5-methylphenyl)-2-(pyrrolidin-1-yl)-5-(2,2,2-trifluoroethyl)oxazole-4-carboxamide], the EC50 in assay [1] (setting [3]) and in assay [2] was 10 to 1000 nM in each case.
Regarding `O=C(Nc1ccc(OC2CCCCC2(F)F)c(F)c1)c1nc(N2CCC3(COC3)C2)oc1CC(F)(F)F` (stereo not shown) [Example 68, N-(4-((2,2-difluorocyclohexyl)oxy)-3-fluorophenyl)-2-(2-oxa-6-azaspiro[3.4]octan-6-yl)-5-(2,2,2-trifluoroethyl)oxazole-4-carboxamide], the EC50 in assay [1] (setting [3]) and in assay [2] was 10 to 1000 nM each time.
